From patent publication US9102599B2, “N-((3-benzyl)-2,2-(bis-phenyl)-propan-1-amine derivatives as CETP inhibitors for the treatment of atherosclerosis and cardiovascular diseases” (Bristol-Myers Squibb Company, priority 2006, dated 2015)

Molecular target: purified human recombinant CETP (Homo sapiens (Human), UniProt P11597)
Assay: CETP Scintillation Proximity Assay
Assay type: biochemical
Conditions: CETP-dependent cholesterol ester transfer from 3H-CE/HDL to biotinylated LDL, 37° C.; read-out: CETP SPA IC50
Description: CETP Scintillation Proximity Assay
Dilutions of compounds in DMSO (1 μl) are added to BD plates (#353232). To this is added 20 μl of a mixture containing ^3H-CE/HDL (0.15 μl), biotinylated LDL (˜5 μg protein/ml final concentration) and unlabeled HDL (16 μg/ml final concentration) in a buffer containing 50 mM HEPES, pH 7.4, 150 mM NaCl and 0.05% sodium azide. Reactions are initiated by the addition of 10 μl of buffer containing purified human recombinant CETP, and incubated at 37° C. At the end of the reaction, 60 μl of LEADseeker beads (#RPNQ0261, 2 mg/ml in buffer containing 1 mg/ml BSA and 0.05 mg protein/ml HDL) are added, the plates are covered and subsequently read. Background activity is determined in a set of wells that receive buffer but no CETP. The level of inhibition is determined by comparing the readings in wells that contain compound to the readings in control wells containing DMSO.

purified human recombinant CETP, sequence (P11597 18-493): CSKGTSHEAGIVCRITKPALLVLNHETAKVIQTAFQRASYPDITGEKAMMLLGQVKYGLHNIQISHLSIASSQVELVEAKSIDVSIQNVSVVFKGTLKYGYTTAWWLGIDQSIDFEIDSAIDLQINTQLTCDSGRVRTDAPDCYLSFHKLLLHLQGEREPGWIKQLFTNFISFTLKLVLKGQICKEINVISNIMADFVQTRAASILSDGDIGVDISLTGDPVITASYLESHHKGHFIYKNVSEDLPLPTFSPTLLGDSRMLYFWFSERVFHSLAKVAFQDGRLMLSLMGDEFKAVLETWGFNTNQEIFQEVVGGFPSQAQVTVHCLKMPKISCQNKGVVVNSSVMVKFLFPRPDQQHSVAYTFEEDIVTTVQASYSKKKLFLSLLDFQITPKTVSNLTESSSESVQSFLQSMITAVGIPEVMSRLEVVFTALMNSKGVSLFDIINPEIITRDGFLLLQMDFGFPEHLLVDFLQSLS

O[C@H](CNC[C@@](Cc1ccccc1)(c1cc(F)cc(C(F)(F)F)c1)c1ccc(F)cn1)C(F)(F)F [Example 6, (R)-1,1,1-trifluoro-3-((R)-2-(3-fluoro-5-(trifluoromethyl)phenyl)-2-(5-fluoropyridin-2-yl)-3-phenylpropylamino)propan-2-ol]
IC50: 30 nM

O[C@H](CNCC(Cc1ccccc1)(c1cccc(OC(F)(F)F)c1)c1cccc(OC(F)(F)F)c1)C(F)(F)F [Example 47, (R)-1,1,1-trifluoro-3-(3-phenyl-2,2-bis(3-(trifluoromethoxy)phenyl)propylamino)propan-2-ol]
IC50: 14 nM

O=S(=O)(CC(F)(F)F)NCC(Cc1ccccc1)(c1cccc(OC(F)(F)F)c1)c1cccc(OC(F)(F)F)c1 [Example 122, 2,2,2-trifluoro-N-(3-phenyl-2,2-bis(3-(trifluoromethoxy)phenyl)-propyl)ethanesulfonamide]
IC50: 129 nM

O=C(NCC(F)(F)F)NCC(Cc1ccccc1)(c1cccc(OC(F)(F)F)c1)c1cccc(OC(F)(F)F)c1 [Example 27, 1-(3-phenyl-2,2-bis(3-(trifluoromethoxy)phenyl)propyl)-3-(2,2,2-trifluoroethyl)urea]
IC50: 132 nM

O=C(NC[C@@](Cc1ccccc1)(c1cc(F)cc(C(F)(F)F)c1)c1ccc(F)cn1)[C@@](O)(c1ccccc1)C(F)(F)F [Example 5, (S)-3,3,3-trifluoro-N—((R)-2-(3-fluoro-5-(trifluoromethyl)phenyl)-2-(5-fluoropyridin-2-yl)-3-phenylpropyl)-2-hydroxy-2-phenylpropanamide]
IC50: 4360 nM

O[C@H](CNCC(Cc1ccccn1)(c1cccc(OC(F)(F)F)c1)c1cccc(OC(F)(F)F)c1)C(F)(F)F [Example 44, (R)-1,1,1-trifluoro-3-(3-(pyridin-2-yl)-2,2-bis(3-(trifluoromethoxy)phenyl)propylamino)propan-2-ol]
IC50: 19 nM

O=C(NCC(Cc1ccccc1)(c1cccc(OC(F)(F)F)c1)c1cccc(OC(F)(F)F)c1)C1CC1(F)F (stereo not drawn) [Example 11, 2,2-difluoro-N-(3-phenyl-2,2-bis(3-(trifluoromethoxy)phenyl)propyl)cyclopropanecarboxamide]
IC50: 1430 nM

Cc1cc(CC(CNC[C@H](O)C(F)(F)F)(c2cccc(OC(F)(F)F)c2)c2cccc(OC(F)(F)F)c2)no1 [Example 43, (S)-1,1,1-trifluoro-3-(3-(5-methylisoxazol-3-yl)-2,2-bis(3-(trifluoromethoxy)phenyl)propylamino)propan-2-ol]
IC50: 134 nM

Cc1ccc(CC(CNC[C@@H](O)C(F)(F)F)(c2cccc(OC(F)(F)F)c2)c2cccc(OC(F)(F)F)c2)cc1 [Example 50, (R)-1,1,1-trifluoro-3-(3-p-tolyl-2,2-bis(3-(trifluoromethoxy)phenyl)propylamino)propan-2-ol]
IC50: 9 nM

FC(F)(F)Oc1cccc(C(CNc2ncc(N3CCOCC3)cn2)(Cc2ccccc2)c2cccc(OC(F)(F)F)c2)c1 [Example 112, 5-morpholino-N-(3-phenyl-2,2-bis(3-(trifluoromethoxy)phenyl)propyl)pyrimidin-2-amine]
IC50: 248 nM

Oc1c(F)cccc1CNCC(Cc1ccccc1)(c1cccc(OC(F)(F)F)c1)c1cccc(OC(F)(F)F)c1 [Example 94, 2-fluoro-6-((3-phenyl-2,2-bis(3-(trifluoromethoxy)phenyl)propylamino)methyl)phenol]
IC50: 184 nM

O[C@@H](CN(C[C@H](O)C(F)(F)F)CC(Cc1ccccc1)(c1cccc(OC(F)(F)F)c1)c1cccc(OC(F)(F)F)c1)C(F)(F)F [Example 45, (2S,2′S)-3,3′-(3-phenyl-2,2-bis(3-(trifluoromethoxy)phenyl)propylazanediyl)bis(1,1,1-trifluoropropan-2-ol)]
IC50: 2810 nM

isopropyl 3-phenyl-2,2-bis(3- (trifluoromethoxy)phenyl)- propylcarbamate [Example 133]
IC50: 1090 nM

FC(F)(F)CCNCC(Cc1ccccc1)(c1cccc(OC(F)(F)F)c1)c1cccc(OC(F)(F)F)c1 [Example 53, 3,3,3-trifluoro-N-(3-phenyl-2,2-bis(3-(trifluoromethoxy)phenyl)propyl)propan-1-amine]
IC50: 25 nM

O[C@H](CNC[C@@](Cc1ccccc1)(c1cc(F)cc(OC(F)(F)C(F)F)c1)c1ccc(Cl)cn1)C(F)(F)F (stereo in doubt) [Example 2, (R)-3-OR)-2-(5-chloropyridin-2-yl)-2-(3-fluoro-5-(1,1,2,2-tetrafluoroethoxy)phenyl)-3-phenylpropylamino)-1,1,1-trifluoropropan-2-ol]
IC50: 9 nM
